Experimental findings from US20230348369A1 (Cytokinetics, Inc., priority 2020, published 2023) are described below.

The target in this assay is human NAMPT (Homo sapiens, UniProt P43490). Briefly: Human recombinant enzyme assay (NMN fluorescence biochemical assay, activation of NAMPT). The settings on record: Table A, human recombinant NAMPT, NMN formation, 60 min; for EC50: read-out: EC50 Human. The method, boiled down: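 NMN production is detected fluorometrically (Ex 355/Em 460 nm) 40 min after acetophenone, KOH and formic acid derivatization. Reactions ran 60 min at ambient temperature: 6 nM human NAMPT, nicotinamide 150 μM, PRPP 20 μM, ATP 2.5 mM, buffered at pH 7.2 with 50 mM HEPES plus DTT, CHAPS, NaCl and 100 mM MgCl2.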
Chain of human NAMPT (P43490 whole entry): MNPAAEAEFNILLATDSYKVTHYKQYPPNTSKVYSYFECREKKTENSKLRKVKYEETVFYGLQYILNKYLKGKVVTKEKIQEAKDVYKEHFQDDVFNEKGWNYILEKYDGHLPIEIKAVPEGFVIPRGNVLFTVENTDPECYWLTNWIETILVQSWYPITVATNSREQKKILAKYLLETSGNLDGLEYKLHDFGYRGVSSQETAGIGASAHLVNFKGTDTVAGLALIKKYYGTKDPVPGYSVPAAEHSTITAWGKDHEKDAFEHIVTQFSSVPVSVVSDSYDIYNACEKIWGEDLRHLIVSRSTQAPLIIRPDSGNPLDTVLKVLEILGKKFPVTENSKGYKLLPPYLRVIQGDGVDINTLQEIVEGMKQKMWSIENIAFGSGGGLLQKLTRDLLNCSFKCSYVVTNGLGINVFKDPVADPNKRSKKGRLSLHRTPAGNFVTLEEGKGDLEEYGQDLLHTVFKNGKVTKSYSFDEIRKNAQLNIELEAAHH

Take `O=C(CCCCCNC(=O)NCc1ccc(Cl)cc1)Nc1ccncc1` [Compound 263, 6-(3-(4-chlorobenzyl)ureido)-N-(pyridin-4-yl)hexanamide]: the “AC1.4 Human” value came out at 1.4 µM and the EC50 (as a rule, the midpoint of the concentration-response curve) worked out at 10.2 µM.
`Cc1cccc(N(C)C(=O)CCCCCNC(=O)NCc2ccc(Cl)cc2)c1` [Compound 264, 6-(3-(4-chlorobenzyl)ureido)-N-methyl-N-(m-tolyl)hexanamide]: the “AC1.4 Human” value is 1.0 µM and the half-maximal effective concentration (EC50) came out at 6.7 µM.
For `CN(C(=O)CCCCCNC(=O)NCc1ccc(Cl)cc1)c1ccncc1` [Compound 265, 6-(3-(4-chlorobenzyl)ureido)-N-methyl-N-(pyridin-4-yl)hexanamide] the same measures were 0.8 µM and 1.6 µM.
Take `Cc1ccccc1N(C)C(=O)CCCCCNC(=O)NCc1ccc(Cl)cc1` [Compound 266, 6-(3-(4-chlorobenzyl)ureido)-N-methyl-N-(o-tolyl)hexanamide]: the “AC1.4 Human” value stood at 0.5 µM and the EC50 amounted to 1.8 µM.
The like results for `Cc1cccc(CN(C)C(=O)CCCCCNC(=O)NCc2ccc(Cl)cc2)c1` [Compound 267, 6-(3-(4-chlorobenzyl)ureido)-N-methyl-N-(3-methylbenzyl)hexanamide] were, in that order, 2.0 µM and 7.9 µM.
The like results for `CN(Cc1ccccc1)C(=O)CCCCCNC(=O)NCc1ccc(Cl)cc1` [Compound 269, N-benzyl-6-(3-(4-chlorobenzyl)ureido)-N-methylhexanamide] were, in that order, 0.7 µM and 5.1 µM.
On to `CN(C(=O)CCCCCNC(=O)NCc1ccc(Cl)cc1)c1cccnc1` [Compound 270, 6-(3-(4-chlorobenzyl)ureido)-N-methyl-N-(pyridin-3-yl)hexanamide], for which the “AC1.4 Human” value worked out at 1.1 µM and the EC50 is 3.9 µM.
Consider `CN(C(=O)CCCCCNC(=O)NCc1ccc(Cl)cc1)c1ccccn1` [Compound 271, 6-(3-(4-chlorobenzyl)ureido)-N-methyl-N-(pyridin-2-yl)hexanamide], for which the “AC1.4 Human” value worked out at 0.9 µM and the EC50 is 3.7 µM.
For `O=C(CCCCCNC(=O)NCc1ccc(Cl)cc1)Nc1ccccc1F` [Compound 272, 6-(3-(4-chlorobenzyl)ureido)-N-(2-fluorophenyl)hexanamide] the same measures were 0.9 µM and 2.6 µM.
The like results for `O=C(CCCCCNC(=O)NCc1ccc(Cl)cc1)Nc1ccccc1-c1ccccc1` [Compound 273, N-([1,1′-biphenyl]-2-yl)-6-(3-(4-chlorobenzyl)ureido)hexanamide] were, in that order, 0.9 µM and 0.3 µM.
On to `CN(C(=O)CCCCCNC(=O)NCc1ccc(Cl)cc1)c1ccccc1F` [Compound 274, 6-(3-(4-chlorobenzyl)ureido)-N-(2-fluorophenyl)-N-methylhexanamide], for which the “AC1.4 Human” value turned out to be 1.9 µM and the EC50 worked out at 0.3 µM.
The like results for `Cc1ccccc1C(=O)NCCCCCNC(=O)NCc1ccc(Cl)cc1` [Compound 275, N-(5-(3-(4-chlorobenzyl)ureido)pentyl)-2-methylbenzamide] were, in that order, 1.9 µM and 11.4 µM.
The like results for `Cc1cccc(C(=O)NCCCCCNC(=O)NCc2ccc(Cl)cc2)c1` [Compound 276, N-(5-(3-(4-chlorobenzyl)ureido)pentyl)-3-methylbenzamide] were, in that order, 1.5 µM and 9.5 µM.
`O=C(NCCCCCNC(=O)c1cccnc1)NCc1ccc(Cl)cc1` [Compound 277, N-(5-(3-(4-chlorobenzyl)ureido)pentyl)nicotinamide]: the “AC1.4 Human” value was 3.2 µM and the 50% effective concentration (EC50) amounted to 6.9 µM.
The like results for `Cc1ccc(NC(=O)CCCCCNC(=O)NCc2ccc(Cl)cc2)cn1` [Compound 278, 6-(3-(4-chlorobenzyl)ureido)-N-(6-methylpyridin-3-yl)hexanamide] were, in that order, 1.8 µM and 7.1 µM.
`O=C(NCCCCCNC(=O)c1ccccn1)NCc1ccc(Cl)cc1` [Compound 279, N-(5-(3-(4-chlorobenzyl)ureido)pentyl)picolinamide]: the “AC1.4 Human” value was 1.8 µM and the EC50 stood at 11.8 µM.
For `O=C(NCCCCCNC(=O)c1ccccc1F)NCc1ccc(Cl)cc1` [Compound 280, N-(5-(3-(4-chlorobenzyl)ureido)pentyl)-2-fluorobenzamide] the same measures were 0.7 µM and 2.6 µM.
For `Cc1ccc(C(=O)NCCCCCNC(=O)NCc2ccc(Cl)cc2)cn1` [Compound 281, N-(5-(3-(4-chlorobenzyl)ureido)pentyl)-6-methylnicotinamide] the same measures were 1.3 µM and 3.9 µM.
The like results for `COc1ccc(CNC(=O)NCCCCCC(=O)N(C)c2ccccc2F)cc1` [Compound 282, N-(2-fluorophenyl)-6-(3-(4-methoxybenzyl)ureido)-N-methylhexanamide] were, in that order, 0.1 µM and 3.9 µM.
For the compound `O=C(Cc1cccnc1)NCCCCCNC(=O)NCc1ccc(Cl)cc1` [Compound 283, N-(5-(3-(4-chlorobenzyl)ureido)pentyl)-2-(pyridin-3-yl)acetamide], the “AC1.4 Human” value turned out to be 8.6 µM and the EC50 was found to be 32.8 µM.
With `O=C(CCCCCNC(=O)NCc1ccc(Cl)cc1)Nc1ccc(F)cc1` [Compound 284, 6-(3-(4-chlorobenzyl)ureido)-N-(4-fluorophenyl)hexanamide], the “AC1.4 Human” value is 2.8 µM and the EC50 was 4.2 µM.
For `O=C(CCCCCNC(=O)NCc1ccc(Cl)cc1)Nc1cccc(F)c1` [Compound 285, 6-(3-(4-chlorobenzyl)ureido)-N-(3-fluorophenyl)hexanamide] the same measures were 3.5 µM and 9.4 µM.
For `CN(C(=O)CCCCCNC(=O)NCc1ccncc1)c1ccccc1F` [Compound 286, N-(2-fluorophenyl)-N-methyl-6-(3-(pyridin-4-ylmethyl)ureido)hexanamide] the same measures were 0.2 µM and 2 µM.
The like results for `O=C(NCCCCC1CCN(C(=O)c2cccnc2)CC1)NCc1ccc(Cl)cc1` [Compound 289, 1-(4-chlorobenzyl)-3-(4-(1-nicotinoylpiperidin-4-yl)butyl)urea] were, in that order, 1.1 µM and 7.7 µM.
In the case of `O=C(NCCCCC1CCN(C(=O)c2ccncc2)CC1)NCc1ccc(Cl)cc1` [Compound 290, 1-(4-chlorobenzyl)-3-(4-(1-isonicotinoylpiperidin-4-yl)butyl)urea], the “AC1.4 Human” value is 1.3 µM and the EC50 worked out at 6.2 µM.
For `O=C(NCCCCC1CCN(C(=O)Cc2ccccc2)CC1)NCc1ccc(Cl)cc1` [Compound 291, 1-(4-chlorobenzyl)-3-(4-(1-(2-phenylacetyl)piperidin-4-yl)butyl)urea] the same measures were 1.9 µM and 4.6 µM.
On to `O=C(NCCCCC1CCN(C(=O)c2ccccn2)CC1)NCc1ccc(Cl)cc1` [Compound 292, 1-(4-chlorobenzyl)-3-(4-(1-picolinoylpiperidin-4-yl)butyl)urea], for which the “AC1.4 Human” value was 0.5 µM and the EC50 worked out at 2 µM.
As for `O=C(NCCCCC1CCN(C(=O)Cc2cccnc2)CC1)NCc1ccc(Cl)cc1` [Compound 294, 1-(4-chlorobenzyl)-3-(4-(1-(2-(pyridin-3-yl)acetyl)piperidin-4-yl)butyl)urea], the “AC1.4 Human” value came to 1.0 µM and the EC50 stood at 10.1 µM.
The like results for `O=C(NCCCCC1CCN(C(=O)Cc2ccncc2)CC1)NCc1ccc(Cl)cc1` [Compound 295, 1-(4-chlorobenzyl)-3-(4-(1-(2-(pyridin-4-yl)acetyl)piperidin-4-yl)butyl)urea] were, in that order, 1.2 µM and 8.4 µM.
The like results for `Cc1cccc(CC(=O)N2CCC(CCCCNC(=O)NCc3ccc(Cl)cc3)CC2)n1` [Compound 299, 1-(4-chlorobenzyl)-3-(4-(1-(2-(6-methylpyridin-2-yl)acetyl)piperidin-4-yl)butyl)urea] were, in that order, 1.0 µM and 3.8 µM.
For `O=C(NCCCCC1CCN(C(=O)C2CCOCC2)CC1)NCc1ccc(Cl)cc1` [Compound 300, 1-(4-chlorobenzyl)-3-(4-(1-(tetrahydro-2H-pyran-4-carbonyl)piperidin-4-yl)butyl)urea] the same measures were 1.4 µM and 6.5 µM.
Turning to `O=C1CC(C(=O)N2CCC(CCCCNC(=O)NCc3ccc(Cl)cc3)CC2)CCN1` (stereo not drawn) [Compound 301, 1-(4-chlorobenzyl)-3-(4-(1-(2-oxopiperidine-4-carbonyl)piperidin-4-yl)butyl)urea], the “AC1.4 Human” value came to 2.7 µM and the EC50 amounted to 26.3 µM.
The like results for `CN1CCC(C(=O)N2CCC(CCCCNC(=O)NCc3ccc(Cl)cc3)CC2)CC1=O` (stereo not drawn) [Compound 302, 1-(4-chlorobenzyl)-3-(4-(1-(1-methyl-2-oxopiperidine-4-carbonyl)piperidin-4-yl)butyl)urea] were, in that order, 2.0 µM and 7.9 µM.
For `O=C1CC(C(=O)N2CCC(CCCCNC(=O)NCc3ccc(Cl)cc3)CC2)CN1` (stereo not drawn) [Compound 303, 1-(4-chlorobenzyl)-3-(4-(1-(5-oxopyrrolidine-3-carbonyl)piperidin-4-yl)butyl)urea] the same measures were 2.6 µM and 15.6 µM.
The like results for `CN1CC(C(=O)N2CCC(CCCCNC(=O)NCc3ccc(Cl)cc3)CC2)CC1=O` (stereo not drawn) [Compound 304, 1-(4-chlorobenzyl)-3-(4-(1-(1-methyl-5-oxopyrrolidine-3-carbonyl)piperidin-4-yl)butyl)urea] were, in that order, 1.7 µM and 10.6 µM.
Turning to `O=C(NCCCCC1CCN(C(=O)c2ncco2)CC1)NCc1ccc(Cl)cc1` [Compound 305, 1-(4-chlorobenzyl)-3-(4-(1-(oxazole-2-carbonyl)piperidin-4-yl)butyl)urea], the “AC1.4 Human” value stood at 0.2 µM and the half-maximal effective concentration (EC50) was 0.4 µM.
